Reference: ChEMBL document CHEMBL4000252, “Discovery of N-(2-aminoethyl)-N-benzyloxyphenyl benzamides: New potent Trypanosoma brucei inhibitors” (Bioorg Med Chem, 2017)
The source made the active and inactive calls. The calls are words filed in the database; no cut-off is given here.

Key:
[1] = Cmax in mouse at 50 mg/kg, po by LC-MS analysis; type: ADME, organism-based; parameters: dose 50 mg/kg, route oral; conditions: in vivo
[2] = tested on: HepG2; experiment: Cytotoxicity against human HepG2 cells assessed as growth inhibition after 48 hrs by Alamar blue assay; type: cell-based; conditions: hepg2, 48 h
[3] = tested on: Trypanosoma brucei brucei; experiment: Antiparasitic activity against Trypanosoma brucei brucei TREU667 infected in mouse assessed as decrease in parasitemia at 50 mg/kg, bid administered via oral gavage on day 21 to 34 post infection measured on day 36 by microscopic method; type: functional, organism-based
[4] = target: Cytochrome P450 3A4 (Homo sapiens, UniProt P08684); experiment: Inhibition of human CYP3A4; type: ADME
[5] = tested on: Trypanosoma brucei brucei; experiment: Antiparasitic activity against Trypanosoma brucei brucei TREU667 infected in mouse assessed as decrease in parasitemia at 50 mg/kg, bid administered via oral gavage on day 21 to 34 post infection measured on day 35 by microscopic method; type: functional, organism-based
[6] = Ratio of drug level in brain to plasma in mouse at 5 mg/kg, ip after 1 hr by LC-MS analysis; type: ADME, organism-based
[7] = tested on: Trypanosoma brucei rhodesiense; experiment: Antiparasitic activity against Trypanosoma brucei rhodesiense STIB900 assessed as growth inhibition after 48 hrs by Alamar blue assay; type: functional; conditions: STIB900, 48 h
[8] = tested on: Trypanosoma brucei rhodesiense; experiment: Antiparasitic activity against Trypanosoma brucei rhodesiense STIB900 infected in Swiss-Webster mouse assessed as cure rate at 50 mg/kg, bid administered via oral gavage from day 2 to 5 post infection measured after 60 days by microscopic method relative to control; type: functional
[9] = tested on: Liver; experiment: Half life in human liver microsomes at 1.5 uM by LC-MS analysis; type: ADME, microsome
[10] = tested on: Trypanosoma brucei rhodesiense; experiment: Antiparasitic activity against Trypanosoma brucei rhodesiense STIB900 infected in Swiss-Webster mouse assessed as parasitemia rebound time at 50 mg/kg, bid administered via oral gavage from day 2 to 5 post infection by microscopic method; type: functional
[11] = tested on: Trypanosoma brucei brucei; experiment: Antiparasitic activity against Trypanosoma brucei brucei TREU667 infected in mouse assessed as decrease in parasitemia at 50 mg/kg, bid administered via oral gavage on day 21 to 34 post infection measured on day 40 by microscopic method; type: functional, organism-based
[12] = Cytotoxicity against human CRL8155 cells assessed as growth inhibition after 48 hrs by Alamar blue assay; type: cell-based; conditions: crl8155, 48 h
[13] = tested on: Trypanosoma brucei brucei; experiment: Antiparasitic activity against Trypanosoma brucei brucei TREU667 infected in mouse assessed as decrease in parasitemia at 50 mg/kg, bid administered via oral gavage on day 21 to 34 post infection measured on day 34 by microscopic method; type: functional, organism-based
[14] = tested on: Trypanosoma brucei brucei; experiment: Antiparasitic activity against Trypanosoma brucei brucei BF427 assessed as growth inhibition after 48 hrs by Alamar blue assay; type: functional; conditions: BF427, 48 h
[15] = AUC (0 to 8 hrs) in mouse at 50 mg/kg, po by LC-MS analysis; type: ADME, organism-based; parameters: dose 50 mg/kg, time < 8 hr, route oral; conditions: in vivo

Sequence of Cytochrome P450 3A4 (P08684 whole entry): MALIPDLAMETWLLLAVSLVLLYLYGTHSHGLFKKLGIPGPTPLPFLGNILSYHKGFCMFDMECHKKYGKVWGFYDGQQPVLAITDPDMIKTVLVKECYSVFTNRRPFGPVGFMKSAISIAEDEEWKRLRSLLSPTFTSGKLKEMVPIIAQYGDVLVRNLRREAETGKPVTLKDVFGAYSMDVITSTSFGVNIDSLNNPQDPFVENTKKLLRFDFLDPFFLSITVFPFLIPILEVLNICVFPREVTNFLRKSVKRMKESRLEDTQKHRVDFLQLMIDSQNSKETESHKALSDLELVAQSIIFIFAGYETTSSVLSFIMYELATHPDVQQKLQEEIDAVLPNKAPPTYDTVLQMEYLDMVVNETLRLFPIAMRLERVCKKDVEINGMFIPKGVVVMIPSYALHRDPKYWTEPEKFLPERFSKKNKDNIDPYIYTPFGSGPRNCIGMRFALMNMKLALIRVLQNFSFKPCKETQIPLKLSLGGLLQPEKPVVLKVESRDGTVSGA

With `CC(C)c1ccc(COc2ccc(N(CCN)C(=O)c3cccnc3C(F)(F)F)cc2)cc1.Cl` the Cmax [1] was 1000 nM, the CC50 [2] was 3830 nM and the Activity [3] was “Active”. The IC50 [4] was 144 nM, the Activity [5] was “Active” and the BPR [6] was 0.23. For the same compound, the EC50 [7] was 2 nM, the Activity [8] was 67 - 80% and the t1/2 [9] was > 1 h. For the same compound, the Time [10] was 31 days, the Activity [11] was “inactive” and the CC50 [12] was 2030 nM. The Activity [13] was “Active”, the EC50 [14] was 1 nM and the AUC(0-t) at 8 h [15] was 5.58 µM·h.
